Here are results for nine compounds from PubChem BioAssay (NCI).

Holding throughout (assay): DTP human tumour cell line panel, 48 h
Test [1] relates to UACC-257 melanoma.
Test [2] deals with OVCAR-4 ovarian.
Test [3] has as its system SNB-75 CNS.
The test system of test [4] is A549 NSCLC.
For test [5], the system named is MDA-MB-435.
The test system of test [6] is COLO 205 colon.
Test [7] concerns MDA-MB-231 breast.
In test [8] the test system is SW-620 colon.
In test [9] the test system is MOLT-4 leukemia.
Test [10] relates to MDA-N.
Test [11] concerns SK-MEL-2 melanoma.
Test [12] has as its system EKVX NSCLC.
The subject of test [13] is HS 578T breast.
Test [14] deals with DU-145 prostate.
Test [15] relates to HCT-15 colon.
In test [16] the test system is TK-10 renal.

Each structure is given as a SMILES string.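 How tested: cells in 96-well plates exposed to compound for 48 hours at five concentrations. TGI: concentration producing complete growth inhibition.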 Where a SMILES comes first, the peptide text is derived from it. [ ]: non-standard residue; d: D form. The star is where a group is joined. Phe(4-NO2) = N[CH](Cc1ccc([N+](=O)[O-])cc1)C(=O)O; Cbz = O=C(OCc1ccccc1)* A value given as a limit tells only on which side of the number the result lay.

What is called TGI is the concentration giving total growth inhibition. As to `N=c1oc2ccccc2cc1C(=O)Nc1ccccn1`, the TGI in test [1], in test [2], in [3], in test [4], in test [5] and in test [6] was greater than 100 µM each time. The concentration for total growth inhibition (TGI) in [7], in [8], in [9], in [10], in test [11] and in [12] was greater than 100 µM throughout. The total growth inhibition concentration (TGI) in [13], in test [14] and in test [15] was greater than 100 µM throughout.
For `CCOC(=O)CCC(NC(=O)OCc1ccccc1)C(=O)NC(CCC(=O)OCC)C(=O)NC(CCC(=O)OCC)C(=O)NC(CCC(=O)OCC)C(=O)NC(CCC(=O)OCC)C(=O)NC(Cc1ccc([N+](=O)[O-])cc1)C(=O)NC(CCC(=O)OCC)C(=O)NC(CCC(=O)OCC)C(=O)NC(CCC(=O)OCC)C(=O)NC(CCC(=O)OCC)C(=O)NC(CCC(=O)OCC)C(=O)OCC` (centres undefined) (Cbz-E(OEt)E(OEt)E(OEt)E(OEt)E(OEt)[Phe(4-NO2)]E(OEt)E(OEt)E(OEt)E(OEt)E(OEt)-OEt; configuration not given here), the TGI in [2] was greater than 50 µM; in [3], greater than 50 µM; in test [4], greater than 50 µM; in test [5], greater than 50 µM; in test [6], greater than 50 µM; in test [7] it was greater than 5 µM. The concentration for total growth inhibition (TGI) in test [8], in test [9], in test [10], in test [11], in test [12] and in [13] was greater than 50 µM in each case. The TGI in test [14], in [15] and in [16] was greater than 50 µM throughout.
In the case of `C=CCNC(=S)NC=C(C(N)=O)C(N)=O`, the total growth inhibition concentration (TGI) in test [1], in test [2], in test [3], in test [4], in test [5] and in [6] was greater than 100 µM in each case. Besides, the TGI in test [7], in test [8], in [9], in [10], in test [11] and in test [12] was greater than 100 µM each time. Further, the TGI in test [13], in test [14] and in [15] was greater than 100 µM each time.
In the case of `C[C@]12CC/C(=N\OCCN3CCCC3)C=C1CCC1C2CC[C@@]2(C)C1CC[C@]2(C)O` (some centres undefined), the concentration for total growth inhibition (TGI) worked out at 17.8 µM in test [1]; 82.4 µM in test [2]; 11.9 µM in test [3]; 42.5 µM in test [4]; 6.67 µM in test [5]; 11.9 µM in test [6]. Further, the TGI is 34 µM in test [7]; 12.6 µM in [9]; 6.33 µM in test [10]; 44.2 µM in test [11]; 34 µM in test [12]; 43.7 µM in [13]. In addition, the results for the TGI in test [14], in [15] and in test [16] were 39.5 µM, 15 µM and 37 µM, respectively.
`COc1ccc(-n2c(C)nc3ccc(NC4OC(COC(C)=O)C(OC(C)=O)C(OC(C)=O)C4OC(C)=O)cc3c2=O)cc1` (centres undefined): the TGI in [1] was greater than 100 µM; in test [2], greater than 100 µM; in [3], greater than 100 µM; in test [5], greater than 100 µM; in test [6] it was 49.4 µM; in [7], greater than 100 µM. Further, the TGI in test [8] is greater than 100 µM; in [9], 80.8 µM; in test [10], greater than 100 µM; in [11], greater than 100 µM; in test [12], greater than 100 µM; in test [13], greater than 100 µM. Besides, the TGI in test [14], in [15] and in test [16] was greater than 100 µM each time.
In the case of `C=C(Cl)C(Cl)(CBr)CCCC(C)C` (centres undefined), the TGI was 32.2 µM in [1]; greater than 100 µM in test [2]; 41.5 µM in test [3]; 54.8 µM in [4]; greater than 100 µM in test [5]; 34.9 µM in test [6]. Moreover, the TGI in test [7] is greater than 69.5 µM; in test [8] it was greater than 84 µM; in [9], greater than 100 µM; in test [10], 97.1 µM; in test [12], 35 µM; in [13], 26.9 µM. The concentration for total growth inhibition (TGI) in [14] is 23.7 µM; in test [15], greater than 85.4 µM; in test [16], 32.4 µM.
As for `CC(Oc1ccc(Cl)cc1Cl)C(=O)NN1C(=O)CC(=O)NC1=S` (centres undefined), the total growth inhibition concentration (TGI) in [1], in [2], in [3], in test [4], in [5] and in test [6] was greater than 100 µM in each case. For the same compound, the TGI in [7], in test [8], in test [10], in test [11], in test [12] and in [13] was greater than 100 µM each time. In addition, the total growth inhibition concentration (TGI) in [14], in test [15] and in test [16] was greater than 100 µM each time.
`CCOC(=O)C1=C(C)N(Cc2ccccc2)C2(O)C=CC(=O)C3C(=O)N(c4ccccc4)C(=O)C132` (centres undefined): the total growth inhibition concentration (TGI) in [1] was 7.59 µM; in test [2] it was 6.45 µM; in test [4] it was 10.4 µM; in test [5] it was 3.86 µM; in [6] it was 3.1 µM; in test [7], 12.1 µM. For the same compound, the TGI came out at 5.54 µM in test [9]; 12.5 µM in [10]; 3.98 µM in [11]; 22.5 µM in test [12]; 34 µM in [13]; 7.63 µM in [14]. The results for the concentration for total growth inhibition (TGI) in [15] and in [16] were 5.14 µM and 9.33 µM, respectively.
For `COc1cc2c(cc1OCCCN1CCOCC1)N=C[C@@H]1CCCN1C2=O`, the TGI in test [1] was 78.9 µM; in test [2], 40.1 µM; in test [4], greater than 100 µM; in test [5], 31 µM; in test [6], 4.55 µM; in test [7] it was greater than 100 µM. For the same compound, the TGI in test [8] was 13.8 µM; in test [9], greater than 100 µM; in test [10] it was 97.5 µM; in [11], greater than 100 µM; in test [12], 47.1 µM; in test [13], greater than 100 µM. Also, the figures for the TGI in [14], in test [15] and in test [16] were 76.9 µM, 74.2 µM and greater than 100 µM, respectively.
